In this experiment the target is T1, recombinant hRIPK2 protein (kinase domain aa 1-299-His-tagged) (Homo sapiens, UniProt O43353).
T1 construct: kinase domain aa 1-299-His-tagged; purchased Life Technologies PR7829A
T1 sequence (O43353 1-299): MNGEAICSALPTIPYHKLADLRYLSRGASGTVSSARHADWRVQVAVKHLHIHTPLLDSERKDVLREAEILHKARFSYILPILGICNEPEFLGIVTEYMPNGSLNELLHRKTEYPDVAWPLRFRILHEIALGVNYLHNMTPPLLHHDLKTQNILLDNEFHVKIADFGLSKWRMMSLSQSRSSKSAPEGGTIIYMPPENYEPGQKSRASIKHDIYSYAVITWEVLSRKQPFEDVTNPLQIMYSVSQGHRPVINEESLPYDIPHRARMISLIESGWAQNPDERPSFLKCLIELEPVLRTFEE
The experiment is described as follows: RIPK2 AlphaLISA assay (displacement of bead-bound CZC-8004 from hRIPK2). The class given is binding. The conditions noted are these: recombinant hRIPK2 kinase domain 10 nM, 2 h at 23° C. The source says: RIPK2 AlphaLISA® Assay (Amplified Luminescent Proximity Homogeneous Assay)
A non-specific kinase inhibitor (CZC-8004 Cayman #916603-07-1) bound to an acceptor bead (#6772001 PerkinElmer) was mixed to the recombinant hRIPK2 protein (kinase domain aa 1-299-His-tagged—Life Technologies PR7829A) and a Ni2+-tagged donor beads (#AS101D PerkinElmer). In the presence of an inhibitor, the compound beads displacement from hRIPK2 was followed by signal loss. In a 384-well ProxiPlate@ (Perkin Elmer, 6008280) add:
2 μL RIPK2 inhibitor (in DMSO 0.8%).
2 μL human recombinant RIPK2 (10 nM diluted in AlphaLISA buffer 1×).
4 μL Mix of […] 1/1000 in AlphaLISA buffer 1×.
Homogenize using a microtiter plate shaker and incubate for 2 h at 23° C.
Read using EnVision®-Alpha Reader (PerkinElmer) according to manufacturer specifications.
For `[2H]C([2H])([2H])Oc1cc2cc(c1)-c1cnn3ccc(nc13)OC[C@@H]1C[C@@H](OCCOC)C(=O)N1CCN2` (racemic) [Example 95, (12R,14S)-4-(^2H3)methoxy-12-(2-methoxyethoxy)-16-oxa-7,10,20,21,24-pentaazapentacyclo[15.5.2.1^2,6.0^10,^14.0^20,^23]pentacosa-1(23),2(25),3,5,17(24),18,21-heptaen-11-one], the IC50 was less than 0.01 µM.

Take `COCCO[C@@H]1C[C@H]2COc3ccn4ncc(c4n3)-c3cc(cc(OC(F)F)c3)NCCN2C1=O` (racemic) [Example 111, (12R,14S)-4-(difluoromethoxy)-12-(2-methoxyethoxy)-16-oxa-7,10,20,21,24-pentaazapentacyclo[15.5.2.1^2,6.0^10,^14.0^20,^23]pentacosa-1(23),2(25),3,5,17(24),18,21-heptaen-11-one]: the IC50 was less than 0.01 µM.

Consider `CCOc1cc2cc(c1)-c1cnn3ccc(nc13)OC[C@@H]1C[C@@H](OCCOC)C(=O)N1CCN2` (racemic) [Example 112, (12R,14S)-4-ethoxy-12-(2-methoxyethoxy)-16-oxa-7,10,20,21,24-pentaazapentacyclo[15.5.2.1^2,6.0^10,^14.0^20,^23]pentacosa-1(23),2(25),3,5,17(24),18,21-heptaen-11-one], for which the IC50 was less than 0.01 µM. On to `COCCO[C@@H]1C[C@H]2COc3ccn4ncc(c4n3)-c3cc(cc(OC(C)C)c3)NCCN2C1=O` (racemic) [Example 113, (12R,14S)-12-(2-methoxyethoxy)-4-(propan-2-yloxy)-16-oxa-7,10,20,21,24-pentaazapentacyclo[15.5.2.1^2,6.0^10,^14.0^20,^23]pentacosa-1(23),2(25),3,5,17(24),18,21-heptaen-11-one], for which the IC50 was 0.01 to 0.1 µM. Consider `COCCO[C@@H]1C[C@H]2COc3ccn4ncc(c4n3)-c3cc(C#N)cc(c3)NCCN2C1=O` (racemic) [Example 114, (12R,14S)-12-(2-methoxyethoxy)-11-oxo-16-oxa-7,10,20,21,24-pentaazapentacyclo[15.5.2.1^2,6.0^10,^14.0^20,^23]pentacosa-1(23),2,4,6(25),17(24),18,21-heptaene-4-carbonitrile], for which the IC50 is less than 0.01 µM. As for `COCCO[C@@H]1C[C@H]2COc3ccn4ncc(c4n3)-c3cc(Cl)cc(c3)NCCN2C1=O` (racemic) [Example 116, (12R,14S)-4-chloro-12-(2-methoxyethoxy)-16-oxa-7,10,20,21,24-pentaazapentacyclo[15.5.2.1^2,6.0^10,^14.0^20,^23]pentacosa-1(23),2,4,6(25),17(24),18,21-heptaen-11-one], the IC50 was less than 0.01 µM. For the compound `COCCO[C@@H]1C[C@H]2COc3nc4c(cnn4cc3OC)-c3cc(cc(OC)c3)NCCN2C1=O` (racemic) [Example 117, (12R,14S)-4,18-dimethoxy-12-(2-methoxyethoxy)-16-oxa-7,10,20,21,24-pentaazapentacyclo[15.5.2.1^2,6.0^10,^14.0^20,^23]pentacosa-1(23),2,4,6(25),17(24),18,21-heptaen-11-one], the IC50 is less than 0.01 µM. For the compound `C#Cc1cc2cc(c1)-c1cnn3ccc(nc13)OC[C@@H]1C[C@@H](OCCOC)C(=O)N1CCN2` (racemic) [Example 118, (12R,14S)-4-ethynyl-12-(2-methoxyethoxy)-16-oxa-7,10,20,21,24-pentaazapentacyclo[15.5.2.1^2,6.0^10,^14.0^20,^23]pentacosa-1(23),2(25),3,5,17(24),18,21-heptaen-11-one], the IC50 is less than 0.01 µM. In the case of `CO[C@@H]1C[C@H]2C(C)Oc3ccn4ncc(c4n3)-c3cc(F)cc(c3)NCCN2C1=O` (relative stereo) [Example 103, E1-(12R,14S,15R*)-4-fluoro-12-methoxy-15-methyl-16-oxa-7,10,20,21,24-pentaazapentacyclo[15.5.2.1^2,6.0^10,^14.0^20,^23]pentacosa-1(23),2,4,6(25),17(24),18,21-heptaen-11-one], the IC50 was 0.01 to 0.1 µM.

For `COCC1C[C@H]2COc3ccn4ncc(c4n3)-c3cc(F)cc(c3)NCCN2C1=O` (single isomer, unassigned) [Example 31], the IC50 is less than 0.01 µM. As to `COCC1C[C@H]2COc3ccn4ncc(c4n3)-c3cc(F)cc(c3)NCCN2C1=O` (single isomer, unassigned) [Example 32], the IC50 was less than 0.01 µM. In the case of `COCc1cc2cc(c1)-c1cnn3cc(C)c(nc13)OC[C@@H]1CC(OC)C(=O)N1CCN2` (single isomer, unassigned) [Example 65, (12R or S,14S)-12-methoxy-4-(methoxymethyl)-18-methyl-16-oxa-7,10,20,21,24-pentaazapenta cyclo[15.5.2.1^2,6.0^10,14.0^20,23]pentacosa-1(23),2,4,6(25),17(24), 18,21-heptaen-11-one], the IC50 was less than 0.01 µM. Turning to `COCc1cc2cc(c1)-c1cnn3cc(C)c(nc13)OC[C@@H]1CC(OC)C(=O)N1CCN2` (single isomer, unassigned) [Example 66, (12R or S,14S)-12-methoxy-4-(methoxymethyl)-18-methyl-16-oxa-7,10,20,21,24-pentaazapenta cyclo[15.5.2.1^2,6.0^10,14.0^20,23]pentacosa-1(23),2,4,6(25),17(24), 18,21-heptaen-11-one], the IC50 is less than 0.01 µM.

On to `CO[C@@H]1CC2(C)COc3ccn4ncc(c4n3)-c3cc(F)cc(c3)NCCN2C1=O` (single isomer, unassigned) [Example 85], for which the IC50 fell in the range of 0.1 to 11 µM.

For the compound `CO[C@@H]1CC2(C)COc3ccn4ncc(c4n3)-c3cc(F)cc(c3)NCCN2C1=O` (single isomer, unassigned) [Example 86], the IC50 was less than 0.01 µM. With `COc1cc2cc(c1)-c1cnn3ccc(nc13)OC[C@@H]1C[C@@H](OC)C(=O)N1CC(C)N2` (single isomer, unassigned) [Example 105, (8R*,12R,14S)-4,12-dimethoxy-8-methyl-16-oxa-7,10,20,21,24-pentaazapentacyclo[15.5.2.1^2,6.0^1°,^14.0^2°,^23]pentacosa-1(23),2,4,6(25),17(24),18,21-heptaen-11-one], the IC50 was less than 0.01 µM.

As to `COc1cc2cc(c1)-c1cnn3ccc(nc13)OC[C@@H]1C[C@@H](OC)C(=O)N1CC(C)N2` (single isomer, unassigned) [Example 106, (8R*,12R,14S)-4,12-dimethoxy-8-methyl-16-oxa-7,10,20,21,24-pentaazapentacyclo[15.5.2.1^2,6.0^1°,^14.0^2°,^23]pentacosa-1(23),2,4,6(25),17(24),18,21-heptaen-11-one], the IC50 fell in the range of 0.01 to 0.1 µM.

For the compound `COc1cn2ncc3c2nc1OC[C@@H]1C[C@@H](OC)C(=O)N1CCNc1cc-3cc(C(F)(F)F)c1` [Example 2, (12R,14S)-12,18-dimethoxy-4-(trifluoromethyl)-16-oxa-7,10,20,21,24-pentaazapentacyclo[15.5.2.1^2,6.0^10,^14.0^20,^23]pentacosa-1(23),2(25),3,5,17(24),18,21-heptaen-11-one], the IC50 is less than 0.01 µM. With `CO[C@@H]1C[C@H]2COc3ccn4ncc(c4n3)-c3cc(Cl)cc(c3)NCCN2C1=O` [Example 4, (12R,14S)-4-chloro-12-methoxy-16-oxa-7,10,20,21,24-pentaazapentacyclo[15.5.2.1^2,6.0^10,^14.0^20,^23]pentacosa-1(23),2(25),3,5,17(24),18,21-heptaen-11-one], the IC50 was less than 0.01 µM. On to `COc1cc2cc(c1)-c1cnn3ccc(nc13)OC[C@@H]1C[C@@H](OC)C(=O)N1CCN2` [Example 5, (12R,14S)-4,12-d i methoxy-16-oxa-7,10,20,21,24-pentaazapentacyclo[15.5.2.1^2,6.0^10,^14.0^20,^23]pentacosa-1(23),2(25),3,5,17(24),18,21-heptaen-11-one], for which the IC50 is less than 0.01 µM. Next, `CCO[C@@H]1C[C@H]2COc3ccn4ncc(c4n3)-c3cc(cc(OC)c3)NCCN2C1=O` [Example 6, (12R,14S)-12-ethoxy-4-methoxy-16-oxa-7,10,20,21,24-pentaazapentacyclo[15.5.2.1^2,6.0^10,^14.0^20,^23]pentacosa-1(23),2,4,6(25),17(24),18,21-heptaen-11-one]: less than 0.01 µM; `CCOc1cc2cc(c1)-c1cnn3ccc(nc13)OC[C@@H]1C[C@@H](OC)C(=O)N1CCN2` [Example 7, (12R,14S)-4-ethoxy-12-methoxy-16-oxa-7,10,20,21,24-pentaazapentacyclo[15.5.2.1^2,6.0^10,^14.0^20,^23]pentacosa-1(23),2(25),3,5,17(24),18,21-heptaen-11-one]: less than 0.01 µM. As to `CO[C@@H]1C[C@H]2COc3ccn4ncc(c4n3)-c3cc(cc(OC(C)C)c3)NCCN2C1=O` [Example 8, (12R,14S)-12-methoxy-4-(propan-2-yloxy)-16-oxa-7,10,20,21,24-pentaazapentacyclo[15.5.2.1^2,6.0^10,^14.0^20,^23]pentacosa-1(23),2,4,6(25),17(24),18,21-heptaen-11-one], the half-inhibitory concentration (IC50) is less than 0.01 µM. Regarding `CC(C)O[C@@H]1C[C@H]2COc3ccn4ncc(c4n3)-c3cc(F)cc(c3)NCCN2C1=O` [Example 9, (12R,14S)-4-fluoro-12-(propan-2-yloxy)-16-oxa-7,10,20,21,24-pentaazapentacyclo[15.5.2.1^2,6.0^10,^14.0^20,^23]pentacosa-1(23),2,4,6(25),17(24),18,21-heptaen-11-one], the IC50 is less than 0.01 µM. Next, `O=C1[C@H](OC2CCC2)C[C@H]2COc3ccn4ncc(c4n3)-c3cc(F)cc(c3)NCCN12` [Example 10, (12R,14S)-12-cyclobutoxy-4-fluoro-16-oxa-7,10,20,21,24-pentaazapentacyclo[15.5.2.1^2,6.0^10,^14.0^20,^23]pentacosa-1(23),2,4,6(25),17(24),18,21-heptaen-11-one]: less than 0.01 µM.

The values above are taken from patent US12630563B2, “Macrocyclic RIP2-kinase inhibitors” (Oncodesign S.A., priority 2020, dated 2026).
